# In article PMC10610505, “Synthesis and Biological Evaluation of Some New 3-Aryl-2-thioxo-2,3-dihydroquinazolin-4(1H)-ones and 3-Aryl-2-(benzylthio)quinazolin-4(3H)-ones as Antioxidants; COX-2, LDHA, α-Glucosidase and α-Amylase Inhibitors; and Anti-Colon Carcinoma and Apoptosis-Inducing Agents” (Pharmaceuticals, 2023):
# Several values for one entry are separate records, joined by “and”; a condition that tells them apart may be missing. Equal entries are not always repeated.
# Columns and labels:
# [1] = tested on: HCT-116 human colon carcinoma cells; assay: Viability assay (LDH release), HCT-116; assay type: cell-based; settings: for viability at 200 µg/mL: HCT-116, 48 h, read-out: Mean % of viable cells ± SD, HCT-116
# Method in brief: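 HCT-116 human colon carcinoma cells were cultured for 24 h at 37 °C in a humidified 5% CO2 incubator. Samples diluted in Dulbecco’s Modified Eagle’s Medium with 10% FBS were then added. Lactate dehydrogenase released from damaged cells was measured in supernatants by ELISA end-point reading at 550 nm. Controls were 0.1% Triton X-100 (positive) and assay medium alone (negative).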
# Bax gene = assay: qRT-PCR expressional level of Bax gene; assay type: cell-based, human; settings: 10 µg/mL, HCT-116 and LoVo cells, vs negative control
# Protocol: Considering these facts, enhancing apoptosis has been extensively studied as a potential drug target in cancer therapy, therefore, in this study, we investigated the effects of the most cytotoxic compounds, 3a and 3f, (at 10 µg/mL, 24 h incubation) on the expressional levels of these apoptotic regulator genes (Bax and Bcl-2) using quantitative reverse transcription–polymerase chain reactions (qRT-PCR).
# Briefly, in a 25 mL flask (1 × 10^6 cells/flask), the human colon cancer cell lines (HCT-116 and LoVo) were grown for 24 h. After replacing the culture media with a medium containing 1% FBS for 24 h, the cells were treated with 10 µg/mL of each tested compound in 2 mL of fresh medium containing 1% FBS, or 0.25% DMSO, which was used as the negative control. The cells were adherent cells and they were detached using trypsin after being washed with ice-cold phosphate-buffered saline (PBS).
# Primers specific for the Bax, Bcl-2 and Caspase-3 genes were designed using the primer blast (https://www.ncbi.nlm.nih.gov/tools/primer-blast/ accessed on 9 January 2023) software. The primers were used in the RT-qPCR analysis to amplify fragments of 100–200 bp in length (Table 11).
# The RNeasy Mini Kit (Qiagen, Hilden, Germany) was used to extract the total RNA. The RNA purity, quality and quantity were checked using a Nanodrop 8000 spectrophotometer (Thermo Fisher Scientific, USA). […]
# LoVo carcinoma cells = assay: Annexin-V-FITC/PI flow cytometry, LoVo; assay type: cell-based, human; settings: 50 µg/mL, 48 h; for Early apoptotic cells (Annexin-V positive, PI negative): lower right quadrant; for Late apoptotic cells (Annexin-V and PI positive): upper right quadrant
# Protocol: In order to examine the effect of compounds 3a and 3f on the apoptosis of HCT-116 and LoVo carcinoma cells, the Annexin-V-FITC probe was used and flow cytometry analyses were performed (Figure 7).
# The percentages of the early apoptotic cells (Annexin-V positive and propidium iodide, PI negative) and late apoptotic cells (both Annexin-V and PI positive) were then calculated. Annexin V-PI staining was also performed to distinguish apoptotic and necrotic cell deaths.
# The distribution of early and late apoptotic cells after treatment with compounds 3a and 3f was carried out using an Annexin V-FITC Apoptosis Detection Kit (BioVisionResearch Products—USA). HCT-116 and LoVo carcinoma cells were seeded in 60 mm^2 culture dishes and treated with the vehicles DMSO, and compounds 3a and 3f (50 µg/mL) for 48 h. Cells were then harvested, washed twice with PBS and resuspended in an Annexin-V binding buffer (BioVisionResearch Products—USA). Finally, the cells were stained with Annexin V-FITC and propidium iodide (PI). The fluorescent intensity of the stained cancer cells was determined using an FITC signal detector (usually FL1) and PI staining with the phycoerythrin emission signal detector (through quadrant statistics for necrotic and apoptotic cell populations).
# [2] = Homo sapiens, HCT-116, from concentration–response curves
# [3] = from concentration–response curves
SMILES,viability at 200 µg/mL ([1]; Homo sapiens) [%],"IC50 [1, 2]","IC50 [1, 3] [µM]",Expression level of Bax gene (Bax gene),"Early apoptotic cells (Annexin-V positive, PI negative) (LoVo carcinoma cells) [%]",Late apoptotic cells (Annexin-V and PI positive) (LoVo carcinoma cells) [%]
"O=c1c2cc(Cl)ccc2[nH]c(=S)n1-c1ccc([N+](=O)[O-])cc1 [Compound 3f, 6-Chloro-3-(4-nitro-phenyl)-2-thioxo-2,3-dihydro-1H-quinazolin-4-one]",4.67 ± 0.577,324 µM and 108 µg/mL,324,upregulate,12.97,4.66
"O=c1c2cc(Cl)ccc2[nH]c(=S)n1-c1cccc(C(F)(F)F)c1 [Compound 3a, 6-Chloro-2-thioxo-3-(3-trifluoromethyl-phenyl)-2,3-dihydro-1H-quinazolin-4-one]",26.8 ± 1.26,298 µM and 106 µg/mL,298,upregulate,18.29,11.01
